{"source": "patent US11932636B2", "about": "“RAD51 inhibitors” (Cyteir Therapeutics, Inc., priority 2019, dated 2024)", "tested_on": "Daudi cells (AID positive)", "assay": "Compound primary screening: cell death in AID positive Daudi cells (Cell-Titer Glo, Day 7)", "format": "cell-based", "details": "Homo sapiens, 168 h; Daudi cells, AID positive; cell death on Day 7, Cell-Titer Glo; read-out: Cellular activity in AID + (Daudi)", "protocol": "Example 149. Compound Primary Screening\nAID expressing cells are dependent upon RAD51 for survival; inhibiting RAD51 in AID positive cells results in a cytotoxic effect.\nA 96 well u-bottom plate was prepared by writing the experiment number, plate number, date and initials in the top right corner of the plate lid. With a sterile 300 ml reservoir, and 25 ml serological pipette, evaporation buffer media was pipetted into reservoir in 25 ml increments. Using the liquid handler, 150 ul of evaporation buffer media was pipetted from reservoir into rows A and H, and Columns 1 and 12 of the 96 well u-bottom plate. Cell cultures were counted to obtain the density of cells per ml, and the culture viability. The cell density information was used to obtain 1,000,000 cells from culture using a 5 mL serological pipette into an epi tube. The cell density information from the culture was used to calculate the number of cells and volume of media needed for the assay to seed 1250 cells in 130 ul of media per available culture well in the 96 well u-bottom plate. Rows B through F were used for cells (50 wells in total), with row G left for an empty media control. The calculation was overestimated by 10 mL to account for the dead volume in the 300 ml reservoir. Once the media volume was calculated, the appropriate volume of media was pipetted in 25 mL increments into the 250 mL bottle using a 25 mL serological pipette. The 250 ml bottle was capped tightly, and placed into a 37° C. water bath for 2 minutes. While the culture media was warming, 10 mL of fresh media was pipetted from the 500 mL culture media bottle into a sterile 25 mL reservoir. Using the Eppendorf multichannel pipette, 130 ul of media was pipetted from the 25 mL reservoir into row G of the 96 well u-bottom plate. Once the 250 mL bottle of media was warmed, the volume of culture needed was pipetted into the bottle, and mixed gently with a 25 mL serological pipette as to not create bubbles, and then the contents of the bottle were pipetted into a new 300 mL reservoir. Using the liquid handler, 130 ul of culture was pipetted from the 300 mL reservoir into rows B through F of the 96 well u-bottom plate. Once the culture was added, the plate was placed into a 37° C. incubator until the compound master plate was prepared for use.\nTwo 96 well u-bottom plates were prepared by writing the master plate name in the upper right corner of the plate lid. Labeling one DMSO master and the other Media Master. The compounds of interest were obtained from the laboratory freezer, and placed into a 25 well storage box with a lid, and set the box aside. The compounds were vortexed after thawing but before use. Using an automatic multichannel pipette, 20 ul of 100% DMSO was pipetted into wells B3-B11 through G3-G11 of the DMSO master plate. For each compound on the master plate, 50 ul of the compound were pipetted in the appropriate well of row 2 (reference plate map to determine appropriate well). A serial dilution was prepared beginning by aspirating 20 ul from row 2 and mixing with row 3, repeating until row 11 was reached. Using the liquid handler, 194 ul of Daudi media was dispensed into wells B2-B11 through G2-G11 of the Media master plate. Using the liquid handler, 6 ul from the DMSO master plate was aspirated and dispensed into the media master plate, mixing 100 ul twice.\nCompounds from master plate were then added to the culture plate. The culture plates were removed from the incubator, and set inside the biosafety cabinet. Using a liquid handler, 20 ul from wells B2 to B11 through G2 to G11 of master plate were aspirated, and dispensed into wells B2 to B11 through G2 to G11 of culture plate. This set was continued with each culture plate. Once the culture plates acquired their 20 ul of compound dilutions, they were placed back into the incubator, until their reads on Day 7 of experiment.\nCell death was measured on Day 7 of the experiment using Cell-Titer Glo and a Promega Plate reader.", "data": [{"compound": "CC(C)OC(=O)N[C@H]1CC[C@H](c2ncc(-c3ccc(O)cc3S(=O)(=O)NC(C)(C)C)s2)CC1", "note": "[Compound 23, isopropyl (trans-4-(5-(2-(N-(tert-butyl)sulfamoyl)-4-hydroxyphenyl)thiazol-2-yl)cyclohexyl)carbamate]", "values": [{"measurement": "EC50", "value": "100 to 1000", "unit": "nM"}]}, {"compound": "CC(C)OC(=O)N[C@H]1CC[C@H](c2ncc(-c3ccc(O)cc3S(N)(=O)=O)s2)CC1", "note": "[Compound 24, isopropyl (trans-4-(5-(4-hydroxy-2-sulfamoylphenyl)thiazol-2-yl)cyclohexyl)carbamate]", "values": [{"measurement": "EC50", "value": "100 to 1000", "unit": "nM"}]}, {"compound": "CC(C)OC(=O)N[C@H]1CC[C@H](c2ncc(-c3ccc(OCCNC(=O)OC(C)(C)C)cc3S(=O)(=O)NC(C)(C)C)s2)CC1", "note": "[Compound 25, isopropyl N-[trans-4-[5-[4-[2-(tert-butoxycarbonylamino)ethoxy]-2-(tert-butylsulfamoyl)phenyl]thiazol-2-yl]cyclohexyl]carbamate]", "values": [{"measurement": "EC50", "value": "1000 to 10000", "unit": "nM"}]}, {"compound": "CC(C)OC(=O)N[C@H]1CC[C@H](c2ncc(-c3ccc(OCCN)cc3S(=O)(=O)NC(C)(C)C)s2)CC1", "note": "[Compound 26, isopropyl (trans-4-(5-(4-(2-aminoethoxy)-2-(N-(tert-butyl)sulfamoyl)phenyl)thiazol-2-yl)cyclohexyl)carbamate]", "values": [{"measurement": "EC50", "value": "1000 to 10000", "unit": "nM"}]}, {"compound": "CC(C)OC(=O)N[C@H]1CC[C@H](c2ncc(-c3ccc(OC(C)C)cc3S(=O)(=O)NC(C)(C)C)s2)CC1", "note": "[Compound 27, isopropyl (trans-4-(5-(2-(N-(tert-butyl)sulfamoyl)-4-isopropoxyphenyl)thiazol-2-yl)cyclohexyl)carbamate]", "values": [{"measurement": "EC50", "value": "1000 to 10000", "unit": "nM"}]}, {"compound": "COc1ccc(-c2cnc([C@H]3CC[C@H](NC(=O)OC(C)C)CC3)s2)c(S(=O)(=O)NC(C)(C)C)c1", "note": "[Compound 28, isopropyl (trans-4-(5-(2-(N-(tert-butyl)sulfamoyl)-4-methoxyphenyl)thiazol-2-yl)cyclohexyl)carbamate]", "values": [{"measurement": "EC50", "value": "> 10000", "unit": "nM"}]}, {"compound": "CC(C)OC(=O)N[C@H]1CC[C@H](c2ncc(-c3ccc(OCCN(C)C(=O)OC(C)(C)C)cc3S(=O)(=O)NC(C)(C)C)s2)CC1", "note": "[Compound 29, tert-butyl (2-(3-(N-(tert-butyl)sulfamoyl)-4-(2-(trans-4-((isopropoxycarbonyl)amino)cyclohexyl)thiazol-5-yl)phenoxy)ethyl)(methyl)carbamate]", "values": [{"measurement": "EC50", "value": "1000 to 10000", "unit": "nM"}]}, {"compound": "CC(C)OC(=O)N[C@H]1CC[C@H](c2ncc(-c3ccc(OCCN(C)C)cc3S(=O)(=O)NC(C)(C)C)s2)CC1", "note": "[Compound 30, isopropyl (trans-4-(5-(2-(N-(tert-butyl)sulfamoyl)-4-(2-(dimethylamino)ethoxy)phenyl)thiazol-2-yl)cyclohexyl)carbamate]", "values": [{"measurement": "EC50", "value": "> 10000", "unit": "nM"}]}, {"compound": "COCCOc1ccc(-c2cnc([C@H]3CC[C@H](NC(=O)OC(C)C)CC3)s2)c(S(=O)(=O)NC(C)(C)C)c1", "note": "[Compound 31, isopropyl (trans-4-(5-(2-(N-(tert-butyl)sulfamoyl)-4-(2-methoxyethoxy)phenyl)thiazol-2-yl)cyclohexyl)carbamate]", "values": [{"measurement": "EC50", "value": "1000 to 10000", "unit": "nM"}]}, {"compound": "CNCCOc1ccc(-c2cnc([C@H]3CC[C@H](NC(=O)OC(C)C)CC3)s2)c(S(=O)(=O)NC(C)(C)C)c1", "note": "[Compound 32, isopropyl (trans-4-(5-(2-(N-(tert-butyl)sulfamoyl)-4-(2-(methylamino)ethoxy)phenyl)thiazol-2-yl)cyclohexyl)carbamate]", "values": [{"measurement": "EC50", "value": "> 10000", "unit": "nM"}]}, {"compound": "CC(C)COCc1ccc(-c2cnc([C@H]3CC[C@H](NC(=O)OC(C)C)CC3)s2)c(S(=O)(=O)NC(C)(C)C)c1", "note": "[Compound 33, isopropyl (trans-4-(5-(2-(N-(tert-butyl)sulfamoyl)-4-(isobutoxymethyl)phenyl)thiazol-2-yl)cyclohexyl)carbamate]", "values": [{"measurement": "EC50", "value": "100 to 1000", "unit": "nM"}]}, {"compound": "CC(C)COCc1ccc(-c2cnc([C@H]3CC[C@H](NC(=O)OC4COC4)CC3)s2)c(S(=O)(=O)NC(C)(C)C)c1", "note": "[Compound 34, oxetan-3-yl trans-N-[4-[5-[2-(tert-butylsulfamoyl)-4-(isobutoxymethyl)phenyl]thiazol-2-yl]cyclohexyl]carbamate]", "values": [{"measurement": "EC50", "value": "1000 to 10000", "unit": "nM"}]}, {"compound": "CCNS(=O)(=O)c1cc(C#N)ccc1-c1cnc([C@H]2CC[C@H](NC(=O)OC(C)C)CC2)s1", "note": "[Compound 36, isopropyl trans-N-[4-[5-[4-cyano-2-(ethylsulfamoyl)phenyl]thiazol-2-yl]cyclohexyl]carbamate]", "values": [{"measurement": "EC50", "value": "1000 to 10000", "unit": "nM"}]}, {"compound": "CC(C)OC(=O)N[C@H]1CC[C@H](c2ncc(-c3ccc(Nc4ncc[nH]4)cc3S(=O)(=O)NC(C)(C)C)s2)CC1", "note": "[Compound 38, isopropyl trans-N-[4-[5-[2-(tert-butylsulfamoyl)-4-(1H-imidazol-2-ylamino)phenyl]thiazol-2-yl]cyclohexyl]carbamate]", "values": [{"measurement": "EC50", "value": "< 100", "unit": "nM"}]}, {"compound": "CC(C)NC(=O)Cc1ccc(-c2cnc([C@H]3CC[C@H](NC(=O)OC(C)C)CC3)s2)c(S(=O)(=O)NC(C)(C)C)c1", "note": "[Compound 40, isopropyl trans-N-[4-[5-[2-(tert-butylsulfamoyl)-4-[2-(isopropylamino)-2-oxo-ethyl]phenyl]thiazol-2-yl]cyclohexyl]carbamate]", "values": [{"measurement": "EC50", "value": "< 100", "unit": "nM"}]}, {"compound": "CC(C)NC(=O)Cc1ccc(-c2cnc([C@H]3CC[C@H](NC(=O)OC4COC4)CC3)s2)c(S(=O)(=O)NC(C)(C)C)c1", "note": "[Compound 41, oxetan-3-yl (trans-4-(5-(2-(N-(tert-butyl)sulfamoyl)-4-(2-(isopropylamino)-2-oxoethyl)phenyl)thiazol-2-yl)cyclohexyl)carbamate]", "values": [{"measurement": "EC50", "value": "100 to 1000", "unit": "nM"}]}, {"compound": "CC(C)OC(=O)N[C@H]1CC[C@H](c2ncc(-c3ccc(Nc4ncco4)cc3S(=O)(=O)NC(C)(C)C)s2)CC1", "note": "[Compound 42, isopropyl (trans-4-(5-(2-(N-(tert-butyl)sulfamoyl)-4-(oxazol-2-ylamino)phenyl)thiazol-2-yl)cyclohexyl)carbamate]", "values": [{"measurement": "EC50", "value": "< 100", "unit": "nM"}]}, {"compound": "CC(C)OC(=O)N[C@H]1CC[C@H](c2ncc(-c3ccccc3S(N)(=O)=O)s2)CC1", "note": "[Compound 44, isopropyl trans-N-[4-[5-(2-sulfamoylphenyl)thiazol-2-yl]cyclohexyl]carbamate]", "values": [{"measurement": "EC50", "value": "1000 to 10000", "unit": "nM"}]}, {"compound": "CCNS(=O)(=O)c1ccccc1-c1cnc([C@H]2CC[C@H](NC(=O)OC(C)C)CC2)s1", "note": "[Compound 45, isopropyl (trans-4-(5-(2-(N-ethylsulfamoyl)phenyl)thiazol-2-yl)cyclohexyl)carbamate]", "values": [{"measurement": "EC50", "value": "1000 to 10000", "unit": "nM"}]}, {"compound": "CC(C)OC(=O)N[C@H]1CC[C@H](c2ncc(-c3ccccc3S(=O)(=O)NC(C)(C)C)s2)CC1", "note": "[Compound 46, isopropyl (trans-4-(5-(2-(N-(tert-butyl)sulfamoyl)phenyl)thiazol-2-yl)cyclohexyl)carbamate]", "values": [{"measurement": "EC50", "value": "1000 to 10000", "unit": "nM"}]}, {"compound": "CCNS(=O)(=O)c1cc(C(=O)O)ccc1-c1cnc([C@H]2CC[C@H](NC(=O)OC(C)C)CC2)s1", "note": "[Compound 48, trans-3-(ethylsulfamoyl)-4-[2-[4-(isopropyloxycarbonyl-amino)cyclohexyl]thiazol-5-yl]benzoic acid]", "values": [{"measurement": "EC50", "value": "1000 to 10000", "unit": "nM"}]}, {"compound": "CCNS(=O)(=O)c1cc(C(N)=O)ccc1-c1cnc([C@H]2CC[C@H](NC(=O)OC(C)C)CC2)s1", "note": "[Compound 49, isopropyl trans-N-[4-[5-[4-carbamoyl-2-(ethylsulfamoyl)phenyl]thiazol-2-yl]cyclohexyl]carbamate]", "values": [{"measurement": "EC50", "value": "100 to 1000", "unit": "nM"}]}, {"compound": "CCNS(=O)(=O)c1cc(C(=O)NC(C)C)ccc1-c1cnc([C@H]2CC[C@H](NC(=O)OC(C)C)CC2)s1", "note": "[Compound 50, isopropyl (trans-4-(5-(2-(N-ethylsulfamoyl)-4-(isopropylcarbamoyl)phenyl)thiazol-2-yl)cyclohexyl)carbamate]", "values": [{"measurement": "EC50", "value": "100 to 1000", "unit": "nM"}]}, {"compound": "CCNS(=O)(=O)c1cc(COCC(C)C)ccc1-c1cnc([C@H]2CC[C@H](NC(=O)OC(C)C)CC2)s1", "note": "[Compound 51, isopropyl (trans-4-(5-(2-(N-ethylsulfamoyl)-4-(isobutoxymethyl)phenyl)thiazol-2-yl)cyclohexyl)carbamate]", "values": [{"measurement": "EC50", "value": "100 to 1000", "unit": "nM"}]}]}
